Assay [1] deals with T1, JAK2 (Homo sapiens, UniProt O60674).
T1 construct: host or cells: baculovirus expression system
Briefly: Recombinant Human JAK2 Kinase Assay (TRF). It counts as biochemical. The settings on record: read-out: JAK2 Potency. The method, then:
Compounds were tested for their ability to inhibit the kinase activity of baculovirus-expressed JAK2 using the TRF detection system. […] The plates were coated first with 100 μL/well of 10 μg/mL Neutravidin (Pierce #31000, Rockford, Ill.) in TBS at 37° C. for 2 hours, followed by 100 μL/well of 1 μg/mL 15-mer peptide substrate (biotinyl-amino-hexanoyl-[…]-amide, Infinity Biotech Research and Resource, Aston, Pa.) at 37° C. for another hour. The JAK2 assay mixture (total volume=100 μL/well) consisting of 20 mM HEPES (pH 7.2), 0.2 μM ATP, 1 mM MnCl2, 0.1% BSA, and test compound (diluted in DMSO; 2.5% DMSO final in assay) was then added to the assay plate. Enzyme (15 ng/ml JAK2) was added and the reaction was allowed to proceed at room temperature for 20 minutes. Detection of the phosphorylated product was performed by adding 100 μL/well of Eu—N1 labeled PY100 antibody (PerkinElmer Life Sciences #AD0041, Boston, Mass.).

Assay [2] addresses T2, ALK (Homo sapiens, UniProt Q9UM73).
T2 construct: host or cells: baculovirus expression system
Description: ALK Kinase Assay (ELISA/TRF, PLC-γ substrate). Type of assay: biochemical. The settings on record: read-out: ALK Potency. The method, then:
Briefly, each 96-well plate was coated with […] of 10 μg/mL substrate (phospholipase C-γ) in Tris-buffered saline (TBS). […] The reaction was initiated by adding enzyme (30 ng/ml ALK) and was allowed to proceed at 37° C. for 15 minutes. Detection of the phosphorylated product was performed by adding 100 μl/well of Eu—N1 labeled PT66 antibody (Perkin Elmer # AD0041).
Data analysis was performed using ActivityBase (IDBS, Guilford, UK). IC50 values were calculated by plotting percent inhibition versus log10 of the concentration of compound and fitting to the nonlinear regression sigmoidal dose-response (variable slope) equation in XLFit (IDBS, Guilford, UK).
In general terms: In an ELISA, binding on a coated surface is turned into a signal by an enzyme label.

Where [3] appears, read: JAK2 kinase inhibition, 0.2 μM ATP.
[4] abbreviates: ALK kinase inhibition, 1 μM ATP.

Like-named read-outs stand apart in the source and are kept apart here. Where only a bound is given, the exact number is not on record here.

T2 sequence (Q9UM73 19-1620): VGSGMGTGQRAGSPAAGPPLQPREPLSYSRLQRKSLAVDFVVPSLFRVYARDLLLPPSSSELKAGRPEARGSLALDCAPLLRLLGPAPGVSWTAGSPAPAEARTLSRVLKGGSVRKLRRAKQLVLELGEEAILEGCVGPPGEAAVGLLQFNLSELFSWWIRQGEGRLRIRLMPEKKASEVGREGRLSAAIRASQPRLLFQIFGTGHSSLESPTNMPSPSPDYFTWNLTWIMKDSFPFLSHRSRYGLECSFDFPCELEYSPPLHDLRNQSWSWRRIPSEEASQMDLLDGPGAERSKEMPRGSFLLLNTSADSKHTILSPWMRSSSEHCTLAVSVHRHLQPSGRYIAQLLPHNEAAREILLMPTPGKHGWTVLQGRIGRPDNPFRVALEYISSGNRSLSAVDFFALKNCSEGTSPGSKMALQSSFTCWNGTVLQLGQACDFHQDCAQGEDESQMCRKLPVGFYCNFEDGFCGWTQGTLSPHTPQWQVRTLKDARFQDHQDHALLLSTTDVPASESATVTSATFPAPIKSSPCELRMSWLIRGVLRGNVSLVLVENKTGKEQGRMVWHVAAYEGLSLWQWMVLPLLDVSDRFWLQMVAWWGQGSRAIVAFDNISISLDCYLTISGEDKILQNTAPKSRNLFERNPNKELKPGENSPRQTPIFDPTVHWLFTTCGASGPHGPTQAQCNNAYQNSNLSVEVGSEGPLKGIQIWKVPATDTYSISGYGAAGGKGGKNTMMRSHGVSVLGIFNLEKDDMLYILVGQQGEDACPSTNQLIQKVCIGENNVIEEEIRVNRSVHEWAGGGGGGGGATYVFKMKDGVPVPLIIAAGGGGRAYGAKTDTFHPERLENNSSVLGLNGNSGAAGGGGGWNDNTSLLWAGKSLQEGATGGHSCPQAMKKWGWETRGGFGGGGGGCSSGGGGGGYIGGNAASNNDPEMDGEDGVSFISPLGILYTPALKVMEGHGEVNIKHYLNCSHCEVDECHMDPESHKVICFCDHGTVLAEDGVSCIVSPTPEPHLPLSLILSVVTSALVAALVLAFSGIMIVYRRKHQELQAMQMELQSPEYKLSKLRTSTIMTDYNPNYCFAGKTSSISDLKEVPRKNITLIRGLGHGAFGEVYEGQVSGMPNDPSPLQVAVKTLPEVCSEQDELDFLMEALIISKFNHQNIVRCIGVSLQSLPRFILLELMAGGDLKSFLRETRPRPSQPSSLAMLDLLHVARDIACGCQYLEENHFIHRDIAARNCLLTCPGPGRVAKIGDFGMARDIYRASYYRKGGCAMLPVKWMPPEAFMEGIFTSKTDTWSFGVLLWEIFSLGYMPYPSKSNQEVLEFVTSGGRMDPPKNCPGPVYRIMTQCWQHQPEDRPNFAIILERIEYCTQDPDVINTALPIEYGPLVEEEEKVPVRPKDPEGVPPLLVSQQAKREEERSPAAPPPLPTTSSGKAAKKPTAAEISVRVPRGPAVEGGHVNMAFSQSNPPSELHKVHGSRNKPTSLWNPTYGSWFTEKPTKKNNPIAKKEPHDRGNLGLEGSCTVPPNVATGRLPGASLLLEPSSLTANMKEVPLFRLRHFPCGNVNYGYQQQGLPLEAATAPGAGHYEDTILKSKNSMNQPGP
T1 sequence (O60674 whole entry): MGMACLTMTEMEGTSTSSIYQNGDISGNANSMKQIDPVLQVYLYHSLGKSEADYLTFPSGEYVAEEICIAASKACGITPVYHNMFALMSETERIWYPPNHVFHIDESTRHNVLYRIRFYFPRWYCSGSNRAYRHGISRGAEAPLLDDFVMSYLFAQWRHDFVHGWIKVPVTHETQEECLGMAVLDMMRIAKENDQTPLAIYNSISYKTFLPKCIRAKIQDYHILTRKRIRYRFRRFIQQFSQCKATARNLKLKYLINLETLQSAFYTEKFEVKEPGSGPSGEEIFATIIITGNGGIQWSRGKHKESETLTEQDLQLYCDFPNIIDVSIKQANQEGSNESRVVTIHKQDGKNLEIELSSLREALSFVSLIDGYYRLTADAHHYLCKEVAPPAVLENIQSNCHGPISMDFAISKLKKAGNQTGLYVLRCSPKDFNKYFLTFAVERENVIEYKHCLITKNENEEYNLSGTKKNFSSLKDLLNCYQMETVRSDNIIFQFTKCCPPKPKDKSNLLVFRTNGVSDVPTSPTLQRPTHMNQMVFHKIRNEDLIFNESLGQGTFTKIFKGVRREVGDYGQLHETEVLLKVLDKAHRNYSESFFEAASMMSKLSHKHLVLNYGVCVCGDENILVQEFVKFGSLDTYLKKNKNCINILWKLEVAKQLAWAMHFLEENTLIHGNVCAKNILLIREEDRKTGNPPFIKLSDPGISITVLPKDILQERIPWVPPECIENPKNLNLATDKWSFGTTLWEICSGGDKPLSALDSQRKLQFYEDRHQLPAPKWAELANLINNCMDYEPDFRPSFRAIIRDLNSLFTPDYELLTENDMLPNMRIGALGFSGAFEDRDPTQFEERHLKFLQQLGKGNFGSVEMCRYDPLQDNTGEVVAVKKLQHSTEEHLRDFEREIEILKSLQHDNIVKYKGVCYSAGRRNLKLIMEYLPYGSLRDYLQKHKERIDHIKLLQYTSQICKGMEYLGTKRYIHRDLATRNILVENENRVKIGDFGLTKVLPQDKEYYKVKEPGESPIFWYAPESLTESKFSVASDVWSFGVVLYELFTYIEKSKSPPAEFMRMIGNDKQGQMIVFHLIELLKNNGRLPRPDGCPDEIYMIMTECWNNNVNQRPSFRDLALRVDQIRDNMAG

With “1-[7-(2-Methoxy-phenyl)-pyrrolo[2,1-f][1,2,4]triazin-2-yl]-1H-imidazo[4,5-c]pyridine [Example 322]”, the IC50 lay within 100 to 1000 nM in assay [1] (JAK2 Kinase Inhibition) and 1000 to 10000 nM in assay [2] (ALK Kinase Inhibition).

With “2-Methyl-propane-2-sulfonic acid (3-{2-[4-(4-diethylamino-piperidin-1-yl)-phenylamino]-pyrrolo[2,1-f][1,2,4]triazin-7-yl}-phenyl)-amide [Example 1217]”, the IC50 in assay [1] (setting [3]) and in assay [2] (setting [4]) was < 100 nM throughout.

With “3-(2-{2-[3-(2-Methoxy-1-methyl-ethoxy)-phenylamino]-pyrrolo[2,1-f][1,2,4]triazin-7-yl}-pyrrol-1-yl)-propionitrile [Example 1295]”, the IC50 in assay [1] (setting [3]) was 100 to 1000 nM; in assay [2] (setting [4]), > 10000 nM.

On to “4-[2-(4-Morpholin-4-yl-phenylamino)-pyrrolo[2,1-f][1,2,4]triazin-7-yl]-piperidine-1-carboxylic acid tert-butyl ester [Example 1128]”, for which the IC50 was < 100 nM in assay [1] (setting [3]) and > 10000 nM in assay [2] (setting [4]).

On to “7-(2-Methoxy-phenyl)-2-(2-methoxy-4-piperazin-1-ylmethyl-phenoxy)-pyrrolo[2,1-f][1,2,4]triazine [Example 1238]”, for which the IC50 is 100 to 1000 nM in assay [1] (setting [3]) and < 100 nM in assay [2] (setting [4]).

For the compound “7-(2-methoxy-phenyl)-pyrrolo(2,1-f)(1,2,4)triazin-2-yl-6-amino-1′-methyl-spiro(2H-1-benzopyran-2,4′-piperidine) [Example 377]”, the IC50 in assay [1] (JAK2 Kinase Inhibition) and in assay [2] (ALK Kinase Inhibition) was < 100 nM throughout.

For the compound `COc1cc([C@@]2(O)CCN(C)C[C@@H]2O)ccc1Nc1ncc2ccc(-c3ccccc3OC)n2n1` (racemic) [Example 829, (±)-(3S,4S)-4-{3-Methoxy-4-[7-(2-methoxy-phenyl)-pyrrolo[2,1-f][1,2,4]triazin-2-ylamino]-phenyl}-1-methyl-piperidine-3,4-diol], in assay [1] (setting [3]), the IC50 was < 100 nM.

On to `COc1cc(C2CCN(C)CC2O)ccc1Nc1ncc2ccc(-c3ccccc3OC)n2n1` (racemic) [Example 830, (±)-4-{3-Methoxy-4-[7-(2-methoxy-phenyl)-pyrrolo[2,1-f][1,2,4]triazin-2-ylamino]-phenyl}-1-methyl-piperidin-3-ol], for which the IC50 in assay [1] (setting [3]) was < 100 nM.

`COc1cc([C@@]2(O)CCN(C(=O)OC(C)(C)C)C[C@@H]2O)ccc1Nc1ncc2ccc(-c3ccccc3OC)n2n1` (racemic) [Example 831, (±)-(3S,4S)-3,4-Dihydroxy-4-{3-methoxy-4-[7-(2-methoxy-phenyl)-pyrrolo[2,1-f][1,2,4]triazin-2-ylamino]-phenyl}-piperidine-1-carboxylic acid tert-butyl ester]: the IC50 in assay [1] (setting [3]) is 100 to 1000 nM.

`COc1cc([C@@]2(O)CCNC[C@@H]2O)ccc1Nc1ncc2ccc(-c3ccccc3OC)n2n1` (racemic) [Example 832, (±)-(3S,4S)-4-{3-Methoxy-4-[7-(2-methoxy-phenyl)-pyrrolo[2,1-f][1,2,4]triazin-2-ylamino]-phenyl}-piperidine-3,4-diol]: the IC50 in assay [1] (setting [3]) was < 100 nM.

Consider `COc1cc([C@@H]2CCNC[C@@H]2O)ccc1Nc1ncc2ccc(-c3ccccc3OC)n2n1` (racemic) [Example 835, (±)-(3R,4S)-4-{3-Methoxy-4-[7-(2-methoxy-phenyl)-pyrrolo[2,1-f][1,2,4]triazin-2-ylamino]-phenyl}-piperidin-3-ol], for which, in assay [1] (setting [3]), the IC50 is 100 to 1000 nM.

For `COc1cc([C@@H]2CCN(CC(N)=O)C[C@@H]2O)ccc1Nc1ncc2ccc(-c3ccccc3OC)n2n1` (racemic) [Example 839, (±)-2-43R,4S)-3-Hydroxy-4-{3-methoxy-4-[7-(2-methoxy-phenyl)-pyrrolo[2,1-f][1,2,4]triazin-2-ylamino]-phenyl}-piperidin-1-yl)-acetamide], in assay [1] (setting [3]), the IC50 lay within 100 to 1000 nM.

For the compound `COc1cc([C@@]2(O)CCNC[C@@H]2O)ccc1Nc1ncc2ccc(-c3ccccc3N(C)S(C)(=O)=O)n2n1` (racemic) [Example 840, (±)-N-(2-{2-[4-((3S,4S)-3,4-Dihydroxy-piperidin-4-yl)-2-methoxy-phenylamino]-pyrrolo[2,1-f][1,2,4]triazin-7-yl}-phenyl)-N-methyl-methanesulfonamide], the IC50 in assay [1] (setting [3]) fell in the range of 1000 to 10000 nM.

For the compound `COc1cc([C@@]2(O)CCN(CC(N)=O)C[C@@H]2O)ccc1Nc1ncc2ccc(-c3ccccc3N(C)S(C)(=O)=O)n2n1` (racemic) [Example 844, (±)-2-[(3S,4S)-3,4-Dihydroxy-4-(4-{7-[2-(methanesulfonyl-methyl-amino)-phenyl]-pyrrolo[2,1-f][1,2,4]triazin-2-ylamino}-3-methoxy-phenyl)-piperidin-1-yl]-acetamide], the IC50 in assay [1] (setting [3]) is 100 to 1000 nM.

As for `COc1cc([C@@H]2CCN(CCO)C[C@@H]2O)ccc1Nc1ncc2ccc(-c3ccccc3OC)n2n1` (racemic) [Example 848, (±)-(3R,4S)-1-(2-Hydroxy-ethyl)-4-{3-methoxy-4-[7-(2-methoxy-phenyl)-pyrrolo[2,1-f][1,2,4]triazin-2-ylamino]-phenyl}-piperidin-3-ol], the IC50 in assay [1] (setting [3]) was < 100 nM.

As for `COc1cc([C@@]2(O)CCN(CC(N)=O)C[C@@H]2O)ccc1Nc1ncc2ccc(-c3ccccc3OC)n2n1` (racemic) [Example 849, (±)-2-43S,4S)-3,4-Dihydroxy-4-{3-methoxy-4-[7-(2-methoxy-phenyl)-pyrrolo[2,1-f][1,2,4]triazin-2-ylamino]-phenyl}-piperidin-1-yl)-acetamide], the IC50 in assay [1] (setting [3]) is < 100 nM.

With `COc1cc([C@@H]2CCNC[C@H]2O)ccc1Nc1ncc2ccc(-c3ccccc3OC)n2n1` (racemic) [Example 855, (±)-(3S,4S)-4-{3-Methoxy-4-[7-(2-methoxy-phenyl)-pyrrolo[2,1-f][1,2,4]triazin-2-ylamino]-phenyl}-piperidin-3-ol], the IC50 in assay [1] (setting [3]) was 100 to 1000 nM.

As for `COc1cc([C@@H]2CCN(CCO)C[C@H]2O)ccc1Nc1ncc2ccc(-c3ccccc3OC)n2n1` (racemic) [Example 856, (±)-(3S,4S)-1-(2-Hydroxy-ethyl)-4-{3-methoxy-4-[7-(2-methoxy-phenyl)-pyrrolo[2,1-f][1,2,4]triazin-2-ylamino]-phenyl}-piperidin-3-ol], in assay [1] (setting [3]), the IC50 was < 100 nM.

For `COc1ccc(Cl)cc1-c1ccc2cnc(Nc3ccc(C(C)C)c(NC(C)=O)c3)nn12` [Example 302, N-{5-[7-(5-Chloro-2-methoxy-phenyl)-pyrrolo[2,1-f][1,2,4]triazin-2-ylamino]-2-isopropyl-phenyl}-acetamide], the IC50 in assay [1] (JAK2 Kinase Inhibition) is < 100 nM.

For the compound `CN1CCN(c2ccc(Nc3ncc4cc(-c5cccnc5)cn4n3)cc2)CC1` [Example 1157], in assay [1] (setting [3]), the IC50 lay within 100 to 1000 nM.

As to `COc1cc(N2CCCC(N3CCNCC3)C2)ccc1Nc1ncc2ccc(-c3ccccc3OC)n2n1` (centres unmarked) [Example 1448, [7-(2-Methoxy-phenyl)-pyrrolo[2,1-f][1,2,4]triazin-2-yl]-[2-methoxy-4-(3-piperazin-1-yl-piperidin-1-yl)-phenyl]-amine], the IC50 in assay [2] (ALK Kinase Inhibition) is < 100 nM.

`COc1cc(N2CCC(N3CCOCC3)CC2)ccc1Nc1ncc2ccc(-c3cccc(N(C)S(C)(=O)=O)c3)n2n1` [Example 1449, N-(3-{2-[2-Methoxy-4-(4-morpholin-4-yl-piperidin-1-yl)-phenylamino]-pyrrolo[2,1-f][1,2,4]triazin-7-yl}-phenyl)-N-methyl-methanesulfonamide]: the IC50 in assay [2] (ALK Kinase Inhibition) is < 100 nM.

Consider “N-tert-Butyl-3-{2-[3-fluoro-4-(4-methyl-piperazin-1-yl)-phenylamino]-pyrrolo[2,1-f][1,2,4]triazin-7-yl}-benzenesulfonamide [Example 1216]”, for which the IC50 in assay [2] (setting [4]) is 100 to 1000 nM.

Values taken from patent publication US8471005B2 (Cephalon, Inc., priority 2008, dated 2013).
